Here are results for three compounds from US9340559B2, “Proteasome inhibitor delanzomib for use in the treatment of lupus” (Cephalon, Inc., priority 2011, dated 2016).

Data set [1] relates to NZM mice. Description: Collagen type-I cross-linker (CTx) bone resorption biomarker ELISA, serum of NZM mice. The settings on record: for serum CTx levels compared to vehicle: treatment groups. The class given is in vivo, mouse. Here is the method: Assay is performed as instructed by the manufacturer. Briefly, biotinylated ratlaps antigen is first added in each well of a 96-well ELISA plate. This plate is covered and incubated for 30 minutes at RT. Plate is washed five times with washing solution and incubated with standards or unknown samples in appropriate wells followed by primary Ab. Incubate overnight for 18 hours at 4° C. followed by washing with buffer. Secondary incubation includes a peroxidase conjugated goat anti-rabbit IgG added to each well and incubation at RT for 1 hour. Incubation with chromogenic substrate solution for 15 minutes at RT in the dark develops the plate for analysis. Stopping solution halts the reaction, absorbance is measured within 2 hours at 450 nm.
Background: ELISA stands for enzyme-linked immunosorbent assay.

In data set [2] the test system is MRL/lpr mice. Put plainly: Urinalysis: urine leukocytes (leukouria), Uristix, MRL/lpr mice. It is filed as in vivo, mouse. On the procedure: Urine samples are acid precipitated for total protein recovery and analysis. Samples for which enough urine remained are used for Uristix® leukouria analysis. Briefly, a standard protein solution is prepared from normal mouse sera and is used as a standard for mouse urinary protein assay by turbidity. Standard preparation is as follows: 0, 5, 10, 15, 20, 30, 40, and 50 μL of a 4 mg/mL mouse sera standard protein solution as provided in the kit are added in duplicate into two columns. PBS is added to individual wells to adjust the final volume to 50 μL. For urine sample preparation, urine samples are centrifuged at 9880×g for 3 minutes using a tabletop micro-centrifuge. Urine supernatant (1-50 μL) is added in duplicate. PBS is added to adjust the volume to 50 μL total. For the turbidity assay: 25 μL of 0.1 N HCl is added into blank columns and 250 μL of 3% sulfosalicyclic acid into the test columns. The microplate is incubated for 10 minutes at RT and plates are read using an ELISA reader with single beam at 450 nm. For the Uristix® strip assay, strips are laid out and labeled. Twenty microliters of urine are placed onto each test strip square and incubated for at least 30 seconds before the result is recorded. For all total urine analysis plate-based assays, values below the limit of detection set by the lowest point along the standard or set by the manufacturer are considered out of range and are not estimated, but assumed the lowest point along the standard curve for that particular assay.

Data set [3] concerns 20S proteasome. Put plainly: 20S proteasome activity in spleen (ex vivo fluorogenic assay), NZM mice (Example 2).
Data set [4] relates to MRL/lpr mice. Description: Serum C3 complement ELISA, MRL/lpr mice. It is filed as in vivo, mouse. The source says:
Mice are tracked on an individual basis.

In data set [5] the test system is NZM mice. Put plainly: Spleen CD38/CD138+ plasma cells by flow cytometry, NZM mice (Example 3). In general terms: A flow cytometer gives signals particle by particle.
Data set [6] deals with NZM mice. Description: Serum IL-12 by Luminex, NZM mice (Example 3). The class given is in vivo, mouse. Here is the method: FIG. 48 depicts serum IL-12 concentration in NZM mice. Mean±SEM values for the concentration of mouse serum IL-12 from treated NZM mice at the end of the study.
For the processing of serum samples for cytokine analysis, frozen plasma at −80° C. is thawed on ice, vortexed, and centrifuged for 10 minutes (10,000×g) to remove debris and aggregates. A total of 25-50 μL of serum is used for Luminex assays following the manufacturer's instructions. Ten different mouse cytokines are measured using the mouse cytokine 20-plex bead kit (Invitrogen, Carlsbad, Calif., no. LMC0006). Briefly, filter plates (Millipore, Billerica, Mass., no. MAIPSWU10), are pre-wet with 200 μL of wash solution (kit component) and 25 μL of beads are added per well. Serum samples are diluted and a total volume of 50 μL is added per well (ie, 25 μL of sample serum plus 25 μL of assay diluent as provided by the manufacturer). Plates with beads are incubated for 2 hours at room temperature (RT) on an orbital shaker in the dark. At the end of the incubation, plate(s) are washed twice in kit buffer, secondary biotinylated antibody is added at a 1:10 dilution (100 μL) in biotin diluent provided with the kit. Plates are incubated at RT for 1 hour in the dark then washed twice in kit buffer. Strepavidin in assay diluent is added at 100 μL per well, then incubated for 30 minutes at RT in the dark. The plates are washed 3 times then 100 μL of kit wash solution is added and agitated for 2-3 minutes at RT in the dark. Plates are run immediately following this incubation period on a Luminex xMAP 200 unit with data acquisition and analysis software (Invitrogen, San Diego, Calif., no. MAP0200). All bead washing is performed using a vacuum manifold unit (Pall, Ann Arbor, Mich. no. 5017). For all cytokine Luminex assays, values below the limit of detection set by the lowest point along the standard or set by the manufacturer are considered out of range and are not estimated, but assumed the lowest point along the standard curve for that particular assay.

Data set [7] concerns NZM mice. Description: Antinuclear antibody ELISA (anti-Smith, anti-dsDNA), serum of NZM mice (Example 3).
The subject of data set [8] is 20S proteasome. Description: 20S proteasome activity in spleen (ex vivo fluorogenic assay), MRL/lpr mice. The settings on record: for PD EOS 20S proteasome, percent change vs vehicle: spleen.
Data set [9] deals with IκBα. Description: IκBα accumulation ELISA in kidney 3 hours post dose, MRL/lpr mice. It is filed as in vivo, mouse. Here is the method: (§1) Samples are homogenized frozen using a PT 10-35 Polytron homogenizer (VWR, no. 97036-082). […] Spleen proteasome activity is analyzed using 20S fluorogenic assay (Cayman Chemical Company, Cat #10008041, Lot #0414698-1) and modulation of proteasome activity in the kidney is analyzed using the IκBα accumulation ELISA assay (Cell Signaling, Cat #7355, Lot #17).

Data set [10] concerns IκBα. Description: IκBα accumulation ELISA in kidney 3 hours post dosing, NZM mice (Example 2). It is filed as in vivo, mouse. On the procedure:
as §1

On to `C[C@@H]1C[C@H]2[C@@H]3CCC4=CC(=O)C=C[C@]4(C)[C@@]3(F)[C@@H](O)C[C@]2(C)[C@@]1(O)C(=O)CO` [dexamethasone, Dexamethasone, reference compound], for which, in the data set on NZM mice [1] (G5 1.5 mg/kg ip, 3× wk), the “Serum CTx linker AUC, percent change vs vehicle” value is on record as 21%. In the data set on NZM mice [1] (G8 1.5 mg/kg 3× wk ip), the “p, serum concentration of collagen type I cross-linker vs G5 Bortezomib 0.3 mg/kg 1× wk ip” value is on record as “p < 0.05” and the “p, serum concentration of collagen type I cross-linker vs G6 Bortezomib 0.3 mg/kg 2× wk ip” value is listed as “p < 0.01”. For the same compound, the “Urine AUC leukocytes, percent change vs vehicle” value with MRL/lpr mice [2] (G6: 1.5 mg/kg ip, 3× wk) is recorded as −100%.
In the case of `CC(C)C[C@H](NC(=O)[C@H](Cc1ccccc1)NC(=O)c1cnccn1)B(O)O` [bortezomib, reference compound], the “PD 20S proteasome activity, percent change vs vehicle” value in the data set with 20S proteasome [3] (G3 0.3 mg/kg ip, 1× wk) was −14%; with 20S proteasome [3] (G4 0.3 mg/kg ip, 2× wk) it was −27%. Moreover, the “serum C3 relative to vehicle” value in the data set on MRL/lpr mice [4] (bortezomib treatment groups) is listed as “did not exhibit a significant increase in serum C3”. Further, the “Serum CTx linker AUC, percent change vs vehicle” value is on record as −27% in the data set with NZM mice [1] (G3 0.3 mg/kg ip, 1× wk) and −35% in the data set on NZM mice [1] (G4 0.3 mg/kg ip, 2× wk). Moreover, in the data set with NZM mice [1], the “serum CTx levels compared to vehicle” value was “no change in CTx levels”. Further, the “spleen CD138/CD38 double positive plasma B cells decrease vs vehicle” value in the data set with NZM mice [5] (Group 7, ip) was 35.4%; with NZM mice [5] (Group 8, sc) it was 57.8%. Further, the “serum IL-12 decrease vs vehicle” value is recorded as 65.8% in the data set with NZM mice [6] (Group 7, ip) and 75.6% with NZM mice [6] (Group 8, sc). The “serum anti-dsDNA ANA decrease vs vehicle” value in the data set on NZM mice [7] (Group 7, ip) stood at 25.8%; with NZM mice [7] (Group 8, sc), 55.4%. The “serum anti-smith ANA decrease vs vehicle” value stood at 66.7% in the data set on NZM mice [7] (Group 7, ip) and 85.7% with NZM mice [7] (Group 8, sc). In addition, the “Urine AUC leukocytes, percent change vs vehicle” value with MRL/lpr mice [2] (G4: 0.5 mg/kg iv, 1× wk) is on record as −78%; with MRL/lpr mice [2] (G5: 0.3 mg/kg iv, 2× wk), −70%. For the same compound, the “spleen 20S proteasome function decrease vs vehicle” value is given as 40% in the data set with 20S proteasome [8] (Group 4) and 41% with 20S proteasome [8] (Group 5). For the same compound, the “PD EOS 20S proteasome, percent change vs vehicle” value in the data set on 20S proteasome [8] (G4: 0.5 mg/kg iv, 1× wk) is reported as −40%; in the data set on 20S proteasome [8] (G5: 0.3 mg/kg iv, 2× wk), −41%. Besides, the “PD EOS IκBα accumulation, percent change vs vehicle” value with IκBα [9] (G4: 0.5 mg/kg iv, 1× wk) was “+340%”; in the data set on IκBα [9] (G5: 0.3 mg/kg iv, 2× wk), “+99%”. The “PD IκBα accumulation, percent change vs vehicle” value is on record as “+61%” in the data set on IκBα [10] (G3 0.3 mg/kg ip, 1× wk) and “+29%” with IκBα [10] (G4 0.3 mg/kg ip, 2× wk).
`CC(C)C[C@H](NC(=O)[C@@H](NC(=O)c1cccc(-c2ccccc2)n1)[C@@H](C)O)B(O)O` [COMPOUND A, [(1R)-1-[[(2S,3R)-3-hydroxy-2-[6-phenyl-pyridine-2-carbonyl)amino]-1-oxobutyl]amino]-3-methylbutylboronic acid]: the “spleen 20S proteasome inhibition relative to vehicle” value in the data set on 20S proteasome [3] (COMPOUND A groups) is reported as roughly 40%. Moreover, the “PD 20S proteasome activity, percent change vs vehicle” value is −42% in the data set with 20S proteasome [3] (G1 3 mg/kg ip, 1× wk) and −41% in the data set on 20S proteasome [3] (G2 3 mg/kg ip, 2× wk). In the data set with MRL/lpr mice [4] (treated orally, day 99), the “serum C3 concentration increase over vehicle” value is 128%. Besides, the “p, serum concentration of collagen type I cross-linker vs G8 Dex 1.5 mg/kg 3× wk ip” value with NZM mice [1] (G1 3 mg/kg 1× wk ip) and in the data set on NZM mice [1] (G2 3 mg/kg 2× wk ip) was “P < 0.01” throughout. For the same compound, the “Serum CTx linker AUC, percent change vs vehicle” value with NZM mice [1] (G1 3 mg/kg ip, 1× wk) is −41%; in the data set on NZM mice [1] (G2 3 mg/kg ip, 2× wk) it was −40%. Besides, in the data set on NZM mice [1], the “serum CTx levels compared to vehicle” value is “no change in CTx levels”. The “spleen CD138/CD38 double positive plasma B cells decrease vs vehicle” value with NZM mice [5] (Group 1 (regimen: Table 42)) turned out to be 56.6%; in the data set on NZM mice [5] (Group 2 (regimen: Table 42)), 38.1%; with NZM mice [5] (Group 4 (regimen: Table 42)), 49.8%; in the data set on NZM mice [5] (Group 5 (regimen: Table 42)) it was 24.3%; in the data set on NZM mice [5] (Group 6 (regimen: Table 42)), 47.8%. Further, the “serum IL-12 decrease vs vehicle” value was found to be 92.8% in the data set on NZM mice [6] (Group 1 (regimen: Table 42)), 76.6% in the data set on NZM mice [6] (Group 2 (regimen: Table 42)), 75.7% in the data set with NZM mice [6] (Group 4 (regimen: Table 42)) and 70.8% in the data set on NZM mice [6] (Group 5 (regimen: Table 42)). Also, the “serum anti-dsDNA ANA decrease vs vehicle” value amounted to 79.6% in the data set on NZM mice [7] (Group 1 (regimen: Table 42)), 69.2% with NZM mice [7] (Group 2 (regimen: Table 42)), 84.1% in the data set on NZM mice [7] (Group 4 (regimen: Table 42)) and 81.0% in the data set on NZM mice [7] (Group 5 (regimen: Table 42)). The “serum anti-smith ANA decrease vs vehicle” value in the data set on NZM mice [7] (Group 1 (regimen: Table 42)) is 93.8%; in the data set on NZM mice [7] (Group 2 (regimen: Table 42)), 85.0%; with NZM mice [7] (Group 4 (regimen: Table 42)) it was 94.5%; in the data set on NZM mice [7] (Group 5 (regimen: Table 42)), 92.4%. Further, the “Urine AUC leukocytes, percent change vs vehicle” value in the data set with MRL/lpr mice [2] (G1: 3 mg/kg iv, 1× wk) is −96%; with MRL/lpr mice [2] (G2: 3 mg/kg iv, 2× wk) it was −94%; in the data set with MRL/lpr mice [2] (G3: 10 mg/kg po, 2× wk), −94%. Further, the “spleen 20S proteasome function decrease vs vehicle” value with 20S proteasome [8] (Group 1) is 40%; in the data set with 20S proteasome [8] (Group 2), 45%; in the data set with 20S proteasome [8] (Group 3), 41%. Besides, the “PD EOS 20S proteasome, percent change vs vehicle” value in the data set on 20S proteasome [8] (G1: 3 mg/kg iv, 1× wk) was −40%; with 20S proteasome [8] (G2: 3 mg/kg iv, 2× wk), −45%; in the data set on 20S proteasome [8] (G3: 10 mg/kg po, 2× wk), −41%. For the same compound, the “PD EOS IκBα accumulation, percent change vs vehicle” value in the data set on IκBα [9] (G1: 3 mg/kg iv, 1× wk) is given as “+537%”; in the data set with IκBα [9] (G2: 3 mg/kg iv, 2× wk), “+227%”; in the data set on IκBα [9] (G3: 10 mg/kg po, 2× wk) it was “+166%”. The “PD IκBα accumulation, percent change vs vehicle” value with IκBα [10] (G1 3 mg/kg ip, 1× wk) was “+33%”; in the data set with IκBα [10] (G2 3 mg/kg ip, 2× wk), “+60%”. In the data set on IκBα [10] (G2 3 mg/kg 2× wk ip), the “p, kidney IκBα accumulation 3 hours post dosing vs G9 Vehicle 1× wk ip” value was “p < 0.05”. Besides, the “kidney IκBα increase above vehicle” value in the data set on IκBα [10] (twice weekly administration) was roughly 40%.
